Assay results reported in patent publication US5294617A, “Angiotensin II receptor blocking 2,3,6 substituted quinazolinones” (American Cyanamid Company, priority 1993, dated 1994).
“And” between values parts separate entries of the source, which are not always exact repeats. Equal entries are not always repeated.

Tested on: ANGIOTENSIN II (AII) VASOPRESSOR RESPONSE
Experiment: AII Challenge: angiotensin II vasopressor response in conscious spontaneously hypertensive rats
Format: in vivo, Conscious Male Okamoto-Aoki SHR (rat)
Conditions: 10 mg/kg i.v.; for % Inhibition / Average Change: SHR n=2; for Response After AII / Response Change / Control Before AII: individual rat, SHR
Text: By administering a compound of this invention to a rat, and then challenging with angiotensin II, a blockage of the vasopressor response is realized.
Conscious Male Okamoto-Aoki SHR, 16-20 weeks old, weighing approximately 330 g are purchased from Charles River Labs (Wilmington, Mass.). Conscious rats are restrained in a supine position with elastic tape. The area at the base of the tail is locally anesthetized by subcutaneous infiltration with 2% procaine. The ventral caudal artery and vein are isolated, and a cannula made of polyethylene (PE) 10-20 tubing (fused together by heat) is passed into the lower abdominal aorta and vena cava, respectively. The cannula is secured, heparinized (1,000 I.U./ml), sealed and the wound is closed. The animals are placed in plastic restraining cages in an upright position. The cannula is attached to a Statham P23Db pressure transducer, and pulsatile blood pressure is recorded to 10-15 minutes with a Gould Brush recorder. (Chan et al., (Drug Development Res., 18:75-94, 1989).
Angiotensin II (human sequence, Sigma Chem. Co., St. Louis, Mo.) of 0.05 and 0.1 ug/kg i.v. is injected into all rats (predosing response). Then a test compound, vehicle or a known angiotensin II antagonist is administered i.v., i.p. or orally to each set of rats. The two doses of angiotensin II are given to each rat again at 30, 60, 90, 120, 180, 240 and 300 minutes post dosing the compound or vehicle. The vasopressor response of angiotensin II is measured for the increase in systolic blood pressure in mmHg. The percentage of antagonism or blockade of the vasopressor response of angiotensin II by a compound is calculated using the vasopressor response (increase in systolic blood pressure) of angiotensin II of each rat predosing the compound as 100%. A compound is considered active if at 30 mg/kg i.v. it antagonized at least 50% of the response.

[1] = AII 0.05 mcg/kg IV, 30 min post dose
[2] = AII 0.05 mcg/kg IV, 60 min post dose
[3] = AII 0.05 mcg/kg IV, 90 min post dose
[4] = AII 0.05 mcg/kg IV, 120 min post dose
[5] = AII 0.05 mcg/kg IV, 180 min post dose
[6] = AII 0.05 mcg/kg IV, 240 min post dose
[7] = AII 0.05 mcg/kg IV, 300 min post dose
[8] = AII 0.1 mcg/kg IV, 30 min post dose
[9] = AII 0.1 mcg/kg IV, 60 min post dose
[10] = AII 0.1 mcg/kg IV, 90 min post dose
[11] = AII 0.1 mcg/kg IV, 120 min post dose
[12] = AII 0.1 mcg/kg IV, 180 min post dose
[13] = AII 0.1 mcg/kg IV, 240 min post dose
[14] = AII 0.1 mcg/kg IV, 300 min post dose
[15] = AII 0.05 mcg/kg IV, 30 min post dose, 10 mg/kg
[16] = AII 0.05 mcg/kg IV, 60 min post dose, 10 mg/kg
[17] = AII 0.05 mcg/kg IV, 90 min post dose, 10 mg/kg
[18] = AII 0.05 mcg/kg IV, 180 min post dose, 10 mg/kg
[19] = AII 0.05 mcg/kg IV, 240 min post dose, 10 mg/kg
[20] = AII 0.05 mcg/kg IV, 300 min post dose, 10 mg/kg
[21] = AII 0.1 mcg/kg IV, 30 min post dose, 10 mg/kg
[22] = AII 0.1 mcg/kg IV, 60 min post dose, 10 mg/kg
[23] = AII 0.1 mcg/kg IV, 90 min post dose, 10 mg/kg
[24] = AII 0.1 mcg/kg IV, 120 min post dose, 10 mg/kg
[25] = AII 0.1 mcg/kg IV, 180 min post dose, 10 mg/kg
[26] = AII 0.1 mcg/kg IV, 240 min post dose, 10 mg/kg
[27] = AII 0.1 mcg/kg IV, 300 min post dose, 10 mg/kg

## CCCCc1nc2ccc([C@H]3C[C@H](CO)ON3C)cc2c(=O)n1Cc1ccc(-c2ccccc2-c2nnn[nH]2)cc1 (relative stereo) [Example 16, TRANS-2-butyl-6-[5-(hydroxymethyl)-2-methyl-3-isoxazolidinyl]-3-[[2'-(1H-tetrazol-5-yl)[1,1'-biphenyl]-4-yl]methyl]-4(3H)-quinazolinone]
[1]
  % Inhibition: 85%
  Average Change: 8 mmHg
[2]
  % Inhibition: 76%
  Average Change: 12.5 mmHg
[3]
  % Inhibition: 62%
  Average Change: 20 mmHg
  Response After AII: 190 mmHg
[4]
  % Inhibition: 67%
  Average Change: 17.5 mmHg
  Response After AII: 210 mmHg
[5]
  % Inhibition: 50%
  Average Change: 26.5 mmHg
  Response After AII: 218 mmHg
[6]
  % Inhibition: 50%
  Average Change: 26.5 mmHg
  Response After AII: 218 mmHg
[7]
  % Inhibition: 19%
  Average Change: 42.5 mmHg
  Response After AII: 230 mmHg
[8]
  % Inhibition: 81%
  Average Change: 10 mmHg
[9]
  % Inhibition: 79%
  Average Change: 11.5 mmHg
[10]
  % Inhibition: 77%
  Average Change: 12.5 mmHg
  Response After AII: 210 mmHg
[11]
  % Inhibition: 68%
  Average Change: 17.5 mmHg
[12]
  % Inhibition: 54%
  Average Change: 25 mmHg
[13]
  % Inhibition: 54%
  Average Change: 25 mmHg
[14]
  % Inhibition: 26%
  Average Change: 40 mmHg
[15]
  Response After AII: 198 mmHg and 190 mmHg
  Response Change: 3 mmHg and 13 mmHg
[16]
  Response After AII: 200 mmHg and 180 mmHg
  Response Change: 5 mmHg and 20 mmHg
[17]
  Response After AII: 215 mmHg
  Response Change: 10 mmHg and 30 mmHg
AII 0.05 mcg/kg IV, 120 min post dose, 10 mg/kg
  Response Change: 15 mmHg and 20 mmHg
[18]
  Response After AII: 195 mmHg
  Response Change: 23 mmHg and 30 mmHg
[19]
  Response After AII: 195 mmHg
  Response Change: 23 mmHg and 30 mmHg
[20]
  Response After AII: 225 mmHg
  Response Change: 35 mmHg and 50 mmHg
[21]
  Response After AII: 205 mmHg and 175 mmHg
  Response Change: 15 mmHg and 5 mmHg
[22]
  Response After AII: 210 mmHg and 173 mmHg
  Response Change: 15 mmHg and 8 mmHg
[23]
  Response After AII: 185 mmHg
  Response Change: 10 mmHg and 15 mmHg
[24]
  Response After AII: 220 mmHg and 200 mmHg
  Response Change: 20 mmHg and 15 mmHg
[25]
  Response After AII: 215 mmHg and 205 mmHg
  Response Change: 15 mmHg and 35 mmHg
[26]
  Response After AII: 215 mmHg and 205 mmHg
  Response Change: 15 mmHg and 35 mmHg
[27]
  Response After AII: 250 mmHg and 230 mmHg
  Response Change: 30 mmHg and 50 mmHg
Before AII 0.05 mcg/kg IV, 30 min post dose, 10 mg/kg
  Control Before AII: 195 mmHg and 177 mmHg
Before AII 0.05 mcg/kg IV, 60 min post dose, 10 mg/kg
  Control Before AII: 195 mmHg and 160 mmHg
Before AII 0.05 mcg/kg IV, 90 min post dose, 10 mg/kg
  Control Before AII: 205 mmHg and 160 mmHg
Before AII 0.05 mcg/kg IV, 120 min post dose, 10 mg/kg
  Control Before AII: 195 mmHg and 190 mmHg
Before AII 0.05 mcg/kg IV, 180 min post dose, 10 mg/kg
  Control Before AII: 195 mmHg and 165 mmHg
Before AII 0.05 mcg/kg IV, 240 min post dose, 10 mg/kg
  Control Before AII: 195 mmHg and 165 mmHg
Before AII 0.05 mcg/kg IV, 300 min post dose, 10 mg/kg
  Control Before AII: 195 mmHg and 175 mmHg
Before AII 0.1 mcg/kg IV, 30 min post dose, 10 mg/kg
  Control Before AII: 190 mmHg and 170 mmHg
Before AII 0.1 mcg/kg IV, 60 min post dose, 10 mg/kg
  Control Before AII: 195 mmHg and 165 mmHg
Before AII 0.1 mcg/kg IV, 90 min post dose, 10 mg/kg
  Control Before AII: 200 mmHg and 170 mmHg
Before AII 0.1 mcg/kg IV, 120 min post dose, 10 mg/kg
  Control Before AII: 200 mmHg and 185 mmHg
Before AII 0.1 mcg/kg IV, 180 min post dose, 10 mg/kg
  Control Before AII: 200 mmHg and 170 mmHg
Before AII 0.1 mcg/kg IV, 240 min post dose, 10 mg/kg
  Control Before AII: 200 mmHg and 170 mmHg
Before AII 0.1 mcg/kg IV, 300 min post dose, 10 mg/kg
  Control Before AII: 220 mmHg and 180 mmHg
